# PMC8981703 (BMC Medicine, 2022)
# What was measured:
# [1] = clinical; format: in vivo, human; settings: plasma
# Procedure: (§1) Response assessment was performed every 28 days on day 1 of each cycle. Adverse event (AE) was assessed using the NCI Common Terminology Criteria for Adverse Events (CTCAE) version 4.03. […] Plasma concentrations were determined at the following distinct time points: pre-dose, 0.5 h, 1 h, 1.5 h, 2 h, 3 h, 4 h, 5 h, 6 h, 8 h, 10 h, 24 h, and 48 h. Pharmacokinetics ethnicity sensitivity analysis was performed to evaluate the potential impact of ethnic factors on the acceptability and difference in the data of Chinese and western patients.
# PK parameters were obtained by analyzing adequate plasma drug concentration data and calculated using the NCA model with Phoenix WinNonlin v8.3.1. The descriptive statistics of PK parameters were summarized using SAS 9.4.
# [2] = test system: Chinese patients with RRMM; experiment: MARCH: safety (TEAEs, CTCAE version 4.03), exposure, dose modification, disposition; format: in vivo
# Procedure: as §1
# Patients who received at least 1 dose of study treatment (modified intent-to-treat [mITT]/safety population) were used for efficacy and safety analysis. Demographics, baseline disease characteristics, and prior anti-MM therapies were summarized for the mITT populations. For the primary analysis of ORR, the primary endpoint, the sample size of 82 patients would provide 80% power to detect a statistical significance with the target ORR of 28% against the threshold ORR (i.e., null hypothesis) of 15% (one-sided α=0.025); statistical significance would be declared if the lower bound of the 95% confidence interval (CI) would be greater than 15%. Time to event endpoints including PFS, OS, and DOR were analyzed using the Kaplan-Meier method.
compound,measurement,setting,value
"O=C(/C=C\n1cnc(-c2cc(C(F)(F)F)cc(C(F)(F)F)c2)n1)NNc1cnccn1 [selinexor, Selinexor]",Tmax,"[1]; human, po, 80 mg, single dose selinexor 80 mg oral, C1D1, read-out: median T max",2.88 h
same,AUC(0-t),"[1]; human, po, 80 mg, read-out: mean AUC0–48h",5800 ng·h/mL
same,Cmax,"[1]; human, po, 80 mg, read-out: mean C max",862 ng/mL
same,half-life,"[1]; human, po, 80 mg, read-out: mean t 1/2 (converted)",6 h
same,median T max,"[1]; single dose selinexor 80 mg oral, C1D1",3 h
same,median number of dose reductions,[2]; among the patients with dose reductions,2
same,median time to the first dose reduction,[2]; in vivo,22.0 days
same,patients with a reduction to 80 mg weekly,[2]; in vivo,20.7%
same,patients with a reduction to 100–120 mg weekly,[2]; in vivo,40.2%
same,patients with dose interruptions,[2]; in vivo,75.6%
same,patients with dose reductions,[2]; in vivo,84.1%
